Assays:
[1] = test system: Mut1 (RNase H inactive mutant of HIV-1 RT); experiment: Test of binding by gel filtration on a SMART system; conditions: starting amounts Mut1 210 pmol, oligonucleotide 630 pmol; Mut1 only 0.50 / 0.63
Text: (§1) In the following experiment, the terms “34-mer” and “35-mer” refer to SEQ ID NO:3 (produced in example A1 above) and SEQ ID NO:4 (produced in example A2 above), respectively. […] Natural RT molecules have an RNase H activity which normally cleaves RNA molecules. […] This mutant is produced according to the method given in Schatz, O., Cromme, F. V., Grüninger-Leitch, F. and Le Grice, S. F. J., Febs Letter. Vol.257, No.2 p.311-314. This RT-mutant is further on referred to as Mut1. The following experiments are carried out:
1. Test of binding by means of separation of the complex Mut1−34-mer (from Example A1) from excess 34-mer using gel filtration on a SMART system.
1. Mut1 is incubated with excess 34-mer for about 90 min at 4° C., buffer Tris-HCl, pH=8.0, containing 5 mM MgCl2. The mixture is then applied to a gel filtration column of a SMART™-type system, which allows simultaneous registration at two different wavelengths.
Starting amounts: Mut=210 pmol; 34-mer=630 pmol. The left peak is the complex Mut1−34-mer. The absorption at 260 nm (the upper curve) is now higher than the absorption at 280 nm (the lower curve): A260/A280=1.13. The right peak is the excess 34-mer, which has the characteristic absorption ratio for nucleic acids: A260/A280=2.01. […]

[2] = test system: Mut1 (RNase H inactive mutant of HIV-1 RT); experiment: Gel mobility shifts in native polyacrylamide gel electrophoresis (PAGE); assay type: binding
Text: as §1
2. Gel mobility shifts in polyacrylamide gel electrophoresis (PAGE) experiments.
a) Native 20% PAGE gel is run at 4-5° C. Samples are incubated at 4° C. in 50 mM hepes buffer and 5 mM magnesium chloride and varying salt concentrations as indicated below.
Samples are incubated for 90 min at 4° C. prior to a further 10 min incubation at 4° C. with ammonium sulphate and/or KCl. Samples applied to lanes 4 and 5 have twice the amount of 34-mer used for the other samples.
b) Native 20% PAGE gel run at 4-5° C. Samples are incubated at 4° C. in 50 mM hepes buffer and 5 mM magnesium chloride, with varying concentrations of ammonium sulphate.
Native 20% PAGE gel is run at 4-5° C. Samples are incubated at 4° C. in 50 mM hepes buffer, 15 mM manganese sulphate, 1 mM EDTA and 0.25 mM EGTA.
Samples are incubated 10 min at room temperature prior to a 60 min incubation at 4° C. One μl of sample solution is applied per lane. Electrophoresis is conducted with up to 400 volts while cooling to approximately 4° C. After 0.209 kWh the gel is silver stained.

[3] = test system: panel of recombinant HIV 1 subtype B RTs; experiment: RT binding inhibition (BIC) assay, whole RT panel; conditions: all conditions studied
Protocol: (iii) Protocol for RT binding inhibition (BIC) assay: The study was performed in a modified DNA polymerase assay. The inhibitors were serially diluted in five steps, enzyme dilution was added and the enzyme/inhibitor mixtures were incubated for 30 minutes at 33° C. Aliquots of the enzyme/inhibitor mixture were transferred to each well of a microtiter plate containing either immobilised primer, or primer/template. The enzyme was allowed to bind to the immobilised polymer for 90 min at 33° C. The amount of RT used was standardised to an activity corresponding to 40-60 pg (3.3-5.0×10^−16 mol) reference HIV-1 RT per well. The plates were then washed to remove unbound enzyme whereupon the amount of bound enzyme was determined by addition of the appropriate reaction solution for polymerisation (i e a reaction solution devoid of primer for studies of primer binding and a reaction solution devoid of both primer and template for studies of binding to primed template). The polymerase reaction was allowed to proceed for 3 hours at 33° C., whereupon the reaction was terminated by a wash of the plate.
The capacity of the indicated substances to inhibit the binding to primer or to primed DNA template of a panel of recombinant HIV 1 subtype B RTs was studied according to “Protocol for RT binding inhibition (BIC) assay” (protocol (iii) above).

| Compound | A260/A280 of the complex peak Mut1-oligonucleotide [1] | Gel mobility of Mut1 in complex with oligonucleotide ([2]; native 20% PAGE at 4-5° C.) | Complex with Mut1 at high salt concentrations ([2]; native 20% PAGE, ammonium sulphate up to […]) | Capacity to prevent RT binding to primer or primed template [3] |
| --- | --- | --- | --- | --- |
| 34-mer: phosphorothioate RNA 34-mer corresponding to bases 10-43 in tRNALys3 with unmodified A, G, C and U nucleotides (example A1) | 1.13 | migrates faster than Mut1 alone | remains in complex with Mut1 |  |
| Cc1ccnc2c1NC(=O)c1cccnc1N2C1CC1 [Nevirapine] |  |  |  | unable to prevent RT binding |
